Patent US11382956B2, “Amylin analogues” (Zealand Pharma A/S, priority 2016, dated 2022)
Numbered stars: 1 amine (or outer) side, 2 acyl side, 3 side chain; on linkers, the order of the positions; unused ones are H or OH. Bridge positions count the residues as written; N and C are the ends. Square brackets hold non-standard residues; d marks the D form. Peptide text beside a SMILES is read from it. * marks the point of attachment. C20 diacid = O=C(O)CCCCCCCCCCCCCCCCCCC(=O)*; γGlu = O=C(O)[C@H](CCC(=O)[*:2])N[*:1]; Hyp = O=C(O)[C@@H]1C[C@@H](O)CN1; NMeI = CC[C@H](C)[C@H](NC)C(=O)O; Aad = N[C@@H](CCCC(=O)O)C(=O)O; hLys = NCCCCC[C@H](N)C(=O)O; Dab = NCC[C@H](N)C(=O)O; Dap = NC[C@H](N)C(=O)O; Sar = CNCC(=O)O

Legend:
[1] = target: T1, recombinant human calcitonin receptor (hCT-R) (Homo sapiens, UniProt P30988); experiment: hCT-R cAMP assay (AlphaScreen) in 1321N1 cells; type: cell-based; conditions: cAMP formation, 45 min stimulation
T1 construct: host or cells: human astrocytoma cell line 1321N1
T1 sequence (P30988 25-474): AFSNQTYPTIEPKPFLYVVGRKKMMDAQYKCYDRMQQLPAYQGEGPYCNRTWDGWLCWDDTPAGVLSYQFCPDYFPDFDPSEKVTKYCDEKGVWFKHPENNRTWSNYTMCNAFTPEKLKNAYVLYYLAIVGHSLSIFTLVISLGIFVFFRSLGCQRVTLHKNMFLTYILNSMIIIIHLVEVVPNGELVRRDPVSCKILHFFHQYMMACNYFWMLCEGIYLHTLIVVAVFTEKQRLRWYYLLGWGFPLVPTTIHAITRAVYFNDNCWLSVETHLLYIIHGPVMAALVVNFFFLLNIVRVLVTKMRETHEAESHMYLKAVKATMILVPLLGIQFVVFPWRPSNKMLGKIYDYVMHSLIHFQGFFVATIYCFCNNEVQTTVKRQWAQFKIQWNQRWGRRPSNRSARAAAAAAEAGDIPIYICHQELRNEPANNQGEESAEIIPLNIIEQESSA
In short: (§1)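 1321N1 astrocytoma cells expressing recombinant human calcitonin receptor alone or with RAMP3 (AMY3) stimulated 45 min at room temperature with peptide in IBMX-containing buffer. cAMP quantified by AlphaScreen after 1 h bead incubation; EC50 fitted from at least 7 concentrations.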

[2] = target: T2, recombinant human amylin 3 receptor (hAMYR3) (Homo sapiens, UniProt O60896+P30988); experiment: hAMYR3 cAMP assay (AlphaScreen) in 1321N1 cells; type: cell-based; conditions: cAMP formation, 45 min stimulation
T2 construct: host or cells: human astrocytoma cell line 1321N1
T2 sequence (P30988 25-474): T1 sequence (P30988 25-474)
T2 sequence (O60896 24-148 partner): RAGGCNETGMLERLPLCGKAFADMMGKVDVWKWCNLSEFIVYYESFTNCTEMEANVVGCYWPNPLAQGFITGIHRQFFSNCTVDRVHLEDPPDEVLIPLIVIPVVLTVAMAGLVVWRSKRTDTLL
In short: as §1

[3] = Chemical stability, alternative analysis in MilliQ water with pH adjusted, 40° C. (RP-HPLC); type: physicochemical; conditions: for % degradation after 8 days at 40° C. pH4: pH adjusted to 4.0, 8 days; for % degradation after 8 days at 40° C. pH7.5: pH adjusted to 7.5, 8 days; for % degradation after 8 days at 40° C. pH9: pH adjusted to 9.0, 8 days
Protocol: In an alternative analysis, peptides were dissolved in MilliQ water and pH adjusted to 4.0, 7.5 or 9.0. Samples were placed in glass vials and incubated at 40° C. The samples were analyzed by RP-HPLC on a C8 column with gradient elution using a trifluoroacetic acid/acetonitrile/water eluent system. The area-percentage (area-%) of the main peak was determined by UV spectroscopy at 220 nm at each sampling time point.
The % degradation was calculated by subtracting the […].
The results of the chemical stability assessment after 8 days of incubation time are summarized as % degradation in Table 3 (below).

Compound: CC[C@H](C)[C@@H](C(=O)N[C@@H](CC(C)C)C(=O)N[C@@H](CO)C(=O)N[C@@H](CO)C(=O)N[C@H](C(=O)N[C@@H](CCC(=O)O)C(=O)N[C@H](C(=O)NCC(=O)N[C@@H](CO)C(=O)N[C@@H](CC(N)=O)C(=O)N[C@H](C(=O)N1C[C@H](O)C[C@H]1C(N)=O)[C@@H](C)O)C(C)C)[C@@H](C)O)N(C)C(=O)[C@H](C)NC(=O)CN(C)C(=O)[C@H](Cc1ccccc1)NC(=O)[C@H](CO)NC(=O)[C@H](CO)NC(=O)[C@H](CCCNC(=N)N)NC(=O)[C@H](CCC(N)=O)NC(=O)[C@H](CC(C)C)NC(=O)[C@H](Cc1ccccc1)NC(=O)[C@H](Cc1c[nH]cn1)NC(=O)[C@H](C)NC(=O)[C@H](CC(C)C)NC(=O)[C@H](CCCNC(=N)N)NC(=O)[C@H](CCC(=O)O)NC(=O)[C@@H](NC(=O)[C@H](C)NC(=O)[C@@H]1CCCCCNC(=O)C[C@H](NC(=O)[C@H](CCCNC(=N)N)NC(=O)CC[C@H](NC(=O)CCCCCCCCCCCCCCCCCCC(=O)O)C(=O)O)C(=O)NCC(=O)N[C@@H]([C@@H](C)O)C(=O)N[C@@H](C)C(=O)N[C@@H]([C@@H](C)O)C(=O)N1)[C@@H](C)O [Compound 19, [19CD]-isoGlu-RD()GTAT-hLys()-ATERLAHFLQRSSF-Gly(Me)-A-Ile(Me)-LSSTEVGSNT-Hyp-NH2] ({C20 diacid-γGlu}-RDGTAT[hLys]ATERLAHFLQRSSF[Sar]A[NMeI]LSSTEVGSNT[Hyp]-NH2; lactam 2-7)
- EC50 [1]: 0.028 nM
- EC50 [2]: 0.006 nM
- % degradation after 8 days at 40° C. pH4 [3]: 3.9%
- % degradation after 8 days at 40° C. pH7.5 [3]: 6.2%
- % degradation after 8 days at 40° C. pH9 [3]: 4.2%

Compound: CC[C@H](C)[C@@H](C(=O)N[C@@H](CC(C)C)C(=O)N[C@@H](CO)C(=O)N[C@@H](CO)C(=O)N[C@H](C(=O)N[C@@H](CCC(=O)O)C(=O)N[C@H](C(=O)NCC(=O)N[C@@H](CO)C(=O)N[C@@H](CC(N)=O)C(=O)N[C@H](C(=O)N1C[C@H](O)C[C@H]1C(N)=O)[C@@H](C)O)C(C)C)[C@@H](C)O)N(C)C(=O)[C@H](C)NC(=O)CN(C)C(=O)[C@H](Cc1ccccc1)NC(=O)[C@H](CO)NC(=O)[C@H](CO)NC(=O)[C@H](CCCNC(=N)N)NC(=O)[C@H](CCC(N)=O)NC(=O)[C@H](CC(C)C)NC(=O)[C@H](Cc1ccccc1)NC(=O)[C@H](Cc1c[nH]cn1)NC(=O)[C@H](C)NC(=O)[C@H](CC(C)C)NC(=O)[C@H](CCCNC(=N)N)NC(=O)[C@H](CCC(=O)O)NC(=O)[C@@H](NC(=O)[C@H](C)NC(=O)[C@@H]1CCCC(=O)NC[C@H](NC(=O)[C@H](CCCNC(=N)N)NC(=O)CC[C@H](NC(=O)CCCCCCCCCCCCCCCCCCC(=O)O)C(=O)O)C(=O)NCC(=O)N[C@@H]([C@@H](C)O)C(=O)N[C@@H](C)C(=O)N[C@@H]([C@@H](C)O)C(=O)N1)[C@@H](C)O [Compound 48, [19CD]-isoGlu-R-Dap()-GTAT-Aad()-ATERLAHFLQRSSF-Gly(Me)-A-Ile(Me)-LSSTEVGSNT-Hyp-NH2] ({C20 diacid-γGlu}-R[Dap]GTAT[Aad]ATERLAHFLQRSSF[Sar]A[NMeI]LSSTEVGSNT[Hyp]-NH2; lactam 2-7)
- EC50 [1]: 0.107 nM
- EC50 [2]: 0.02 nM
- % degradation after 8 days at 40° C. pH4 [3]: 1.8%
- % degradation after 8 days at 40° C. pH7.5 [3]: 2.3%
- % degradation after 8 days at 40° C. pH9 [3]: 2.5%

Compound: CC[C@H](C)[C@@H](C(=O)N[C@@H](CC(C)C)C(=O)N[C@@H](CO)C(=O)N[C@@H](CO)C(=O)N[C@H](C(=O)N[C@@H](CCC(=O)O)C(=O)N[C@H](C(=O)NCC(=O)N[C@@H](CO)C(=O)N[C@@H](CC(N)=O)C(=O)N[C@H](C(=O)N1C[C@H](O)C[C@H]1C(N)=O)[C@@H](C)O)C(C)C)[C@@H](C)O)N(C)C(=O)[C@H](C)NC(=O)CN(C)C(=O)[C@H](Cc1ccccc1)NC(=O)[C@H](CO)NC(=O)[C@H](CO)NC(=O)[C@H](CCCNC(=N)N)NC(=O)[C@H](CCC(N)=O)NC(=O)[C@H](CC(C)C)NC(=O)[C@H](Cc1ccccc1)NC(=O)[C@H](Cc1c[nH]cn1)NC(=O)[C@H](C)NC(=O)[C@H](CC(C)C)NC(=O)[C@H](CCCNC(=N)N)NC(=O)[C@H](CCC(=O)O)NC(=O)[C@@H](NC(=O)[C@H](C)NC(=O)[C@@H]1CCC(=O)NCC[C@H](NC(=O)[C@H](CCCNC(=N)N)NC(=O)CC[C@H](NC(=O)CCCCCCCCCCCCCCCCCCC(=O)O)C(=O)O)C(=O)NCC(=O)N[C@@H]([C@@H](C)O)C(=O)N[C@@H](C)C(=O)N[C@@H]([C@@H](C)O)C(=O)N1)[C@@H](C)O [Compound 49, [19CD]-isoGlu-R-Dab()-GTATE()ATERLAHFLQRSSF-Gly(Me)-A-Ile(Me)-LSSTEVGSNT-Hyp-NH2] ({C20 diacid-γGlu}-R[Dab]GTATEATERLAHFLQRSSF[Sar]A[NMeI]LSSTEVGSNT[Hyp]-NH2; lactam 2-7)
- EC50 [1]: 1.04 nM
- EC50 [2]: 0.442 nM
- % degradation after 8 days at 40° C. pH4 [3]: 1.7%
- % degradation after 8 days at 40° C. pH7.5 [3]: 2.1%
- % degradation after 8 days at 40° C. pH9 [3]: 3.0%

Compound: CC[C@H](C)[C@@H](C(=O)N[C@@H](CC(C)C)C(=O)N[C@@H](CO)C(=O)N[C@@H](CO)C(=O)N[C@H](C(=O)N[C@@H](CCC(=O)O)C(=O)N[C@H](C(=O)NCC(=O)N[C@@H](CO)C(=O)N[C@@H](CC(N)=O)C(=O)N[C@H](C(=O)N1C[C@H](O)C[C@H]1C(N)=O)[C@@H](C)O)C(C)C)[C@@H](C)O)N(C)C(=O)[C@H](C)NC(=O)CN(C)C(=O)[C@H](Cc1ccccc1)NC(=O)[C@H](CO)NC(=O)[C@H](CO)NC(=O)[C@H](CCCNC(=N)N)NC(=O)[C@H](CCC(N)=O)NC(=O)[C@H](CC(C)C)NC(=O)[C@H](Cc1ccccc1)NC(=O)[C@H](Cc1c[nH]cn1)NC(=O)[C@H](C)NC(=O)[C@H](CC(C)C)NC(=O)[C@H](CCCNC(=N)N)NC(=O)[C@H](CCC(=O)O)NC(=O)[C@@H](NC(=O)[C@H](C)NC(=O)[C@@H]1CCNC(=O)CC[C@H](NC(=O)[C@H](CCCNC(=N)N)NC(=O)CC[C@H](NC(=O)CCCCCCCCCCCCCCCCCCC(=O)O)C(=O)O)C(=O)NCC(=O)N[C@@H]([C@@H](C)O)C(=O)N[C@@H](C)C(=O)N[C@@H]([C@@H](C)O)C(=O)N1)[C@@H](C)O [Compound 51, [19CD]-isoGlu-RE()GTAT-Dab()-ATERLAHFLQRSSF-Gly(Me)-A-Ile(Me)-LSSTEVGSNT-Hyp-NH2] ({C20 diacid-γGlu}-REGTAT[Dab]ATERLAHFLQRSSF[Sar]A[NMeI]LSSTEVGSNT[Hyp]-NH2; lactam 2-7)
- EC50 [1]: 0.861 nM
- EC50 [2]: 0.306 nM
- % degradation after 8 days at 40° C. pH4 [3]: 3.1%
- % degradation after 8 days at 40° C. pH7.5 [3]: 4.6%
- % degradation after 8 days at 40° C. pH9 [3]: 4.6%
